pIC50: −log10 of the molar value. Counter-ions that a name gives are not always drawn.
The compounds below were run against human KAT II (hKAT II) enzyme (Homo sapiens, UniProt Q8N5Z0) (assay: KAT II Inhibition Spectra Assay). Settings: not given.
Assay type: biochemical
Method: Formation of kynurenic acid (KYNA) is indirectly assessed by a decrease in light absorbance at 370 nm (OD370) as the L-kynurenine (KYN) substrate is converted by the human KAT II (hKAT II) enzyme into KYNA. An inhibitor would therefore inhibit the decrease in OD370.
The protocol was performed by placing the following reagents into a Costar 384 well black plate (30 μL total assay volume/well): • 10 μL of 3× concentrated compound; • 10 μL of 3× concentrated substrate mix (BGG (Sigma G-5009); 3 mM L-Kynurenine in 150 mM Tris Acetate (Sigma K3750); 3 mM α-ketoglutaric acid in 150 mM Tris Acetate (Sigma K2010); and 210 μM pyridoxal 5-phosphate (PLP) in 150 mM Tris Acetate (Sigma 9255)); and • 10 μL of 3× concentrated enzyme (15 nM enzyme in 150 mM Tris Acetate with 0.3% bovine serum).
Plates were sealed and incubated at 37° C. for 15-20 h before reading OD370 on a SpectraMax Plus plate reader. IC50s were generated by comparing the efficacy of compounds across a concentration range to inhibit a reduction in the OD370 value relative to assay wells with DMSO added in place of concentrated compound.

Sequence of human KAT II (hKAT II) enzyme (Q8N5Z0 30-425): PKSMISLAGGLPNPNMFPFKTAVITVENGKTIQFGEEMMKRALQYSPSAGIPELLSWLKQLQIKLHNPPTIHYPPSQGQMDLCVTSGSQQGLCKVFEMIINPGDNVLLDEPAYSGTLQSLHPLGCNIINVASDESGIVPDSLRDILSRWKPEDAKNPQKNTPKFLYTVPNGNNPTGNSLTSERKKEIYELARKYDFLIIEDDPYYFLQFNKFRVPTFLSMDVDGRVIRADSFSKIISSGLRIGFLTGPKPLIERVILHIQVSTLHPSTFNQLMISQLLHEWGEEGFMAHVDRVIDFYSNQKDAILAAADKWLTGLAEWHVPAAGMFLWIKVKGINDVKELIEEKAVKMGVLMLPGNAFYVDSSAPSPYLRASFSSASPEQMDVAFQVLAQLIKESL

`CN(C)C(=O)ON1C(=O)[C@@H](N)Cc2ccccc21` [Example 73, (3S)-3-amino-1-[(dimethylcarbamoyl)oxy]-3,4-dihydroquinolin-2(1H)-one, hydrochloride salt] showed a pIC50 of 5.96.

Same assay, conditions: Table 5; hKAT II, decrease in OD370, 37° C., 15-20 h; read-out: KATII IC50

`CCOc1ccccc1-c1ccc2c(c1)N(O)C(=O)C(N)C2` (stereo not drawn) [Example 57, 3-amino-7-(2-ethoxyphenyl)-1-hydroxy-3,4-dihydroquinolin-2(1H)-one, trifluoroacetate salt] and `N#Cc1ccccc1-c1ccc2c(c1)N(O)C(=O)C(N)C2` (stereo not drawn) [Example 62, 2-(3-amino-1-hydroxy-2-oxo-1,2,3,4-tetrahydroquinolin-7-yl)benzonitrile, trifluoroacetate salt] are within 0.2 log units of each other in pIC50: 6.99 for the first, 6.87 for the second.

`NC1Cc2ccc(-c3cc(Cl)cc(Cl)c3)cc2N(O)C1=O` (stereo not drawn) [Example 58, 3-amino-7-(3,5-dichlorophenyl)-1-hydroxy-3,4-dihydroquinolin-2(1H)-one, trifluoroacetate salt] and `Cc1cccc(-c2ccc3c(c2)N(O)C(=O)C(N)C3)c1` (stereo not drawn) [Example 63, 3-amino-1-hydroxy-7-(3-methylphenyl)-3,4-dihydroquinolin-2(1H)-one, trifluoroacetate salt] are within 0.2 log units of each other in pIC50: 6.76 for the first, 6.95 for the second.

`COc1ccc(F)cc1-c1ccc2c(c1)N(O)C(=O)C(N)C2` (stereo not drawn) [Example 59, 3-amino-7-(5-fluoro-2-methoxyphenyl)-1-hydroxy-3,4-dihydroquinolin-2(1H)-one, trifluoroacetate salt] and `COc1ccc(-c2ccc3c(c2)N(O)C(=O)C(N)C3)cc1C` (stereo not drawn) [Example 64, 3-amino-1-hydroxy-7-(4-methoxy-3-methylphenyl)-3,4-dihydroquinolin-2(1H)-one, trifluoroacetate salt] are within 0.2 log units of each other in pIC50: 6.81 for the first, 6.85 for the second.

`CC(C)Oc1ccc(-c2ccc3c(c2)N(O)C(=O)C(N)C3)cc1` (stereo not drawn) [Example 60, 3-amino-1-hydroxy-7-(4-isopropoxyphenyl)-3,4-dihydroquinolin-2(1H)-one, trifluoroacetate salt] and `NC1Cc2ccc(-c3ccc(OC(F)(F)F)cc3)cc2N(O)C1=O` (stereo not drawn) [Example 61, 3-amino-1-hydroxy-7-[4-(trifluoromethoxy)phenyl]-3,4-dihydroquinolin-2(1H)-one, trifluoroacetate salt] are the same in pIC50: 6.79 for the first, 6.79 for the second.

`NC1Cc2ccc(-c3ccc4c(c3)CCO4)cc2N(O)C1=O` (stereo not drawn) [Example 65, 3-amino-7-(2,3-dihydro-1-benzofuran-5-yl)-1-hydroxy-3,4-dihydroquinolin-2(1H)-one, trifluoroacetate salt] was tested, and the pIC50 was 6.81.

Same assay, conditions: Table 6; hKAT II, decrease in OD370, 37° C., 15-20 h; read-out: KATII IC50

`N[C@H]1Cc2cc(Oc3ccccc3)cnc2N(O)C1=O` [Example 66, (3S)-3-amino-1-hydroxy-6-phenoxy-3,4-dihydro-1,8-naphthyridin-2(1H)-one] and `COc1cccc(Oc2cnc3c(c2)C[C@H](N)C(=O)N3O)c1` [Example 80] are within 0.2 log units of each other in pIC50: 7.64 for the first, 7.51 for the second.

`N[C@H]1Cc2cc(S(=O)(=O)c3ccccc3)ccc2N(O)C1=O` [Example 67, (3S)-3-amino-1-hydroxy-6-(phenylsulfonyl)-3,4-dihydroquinolin-2(1H)-one, hydrochloride salt] and `N[C@H]1Cc2cc(Cc3ccccc3)ccc2N(O)C1=O` [Example 68, (3S)-3-amino-6-benzyl-1-hydroxy-3,4-dihydroquinolin-2(1H)-one, trifluoroacetic acid salt] are within 0.2 log units of each other in pIC50: 7.38 for the first, 7.37 for the second.

`NC1Cc2cc(Oc3ccccc3Cl)ccc2N(O)C1=O` (stereo not drawn) [Example 69, 3-amino-6-(2-chlorophenoxy)-1-hydroxy-3,4-dihydroquinolin-2(1H)-one, hydrochloride salt] and `N#Cc1ccccc1Oc1ccc2c(c1)CC(N)C(=O)N2O` (stereo not drawn) [Example 82] are within 0.2 log units of each other in pIC50: 7.36 for the first, 7.39 for the second.

Compared with `N#Cc1cccc(Oc2ccc3c(c2)C[C@H](N)C(=O)N3O)c1` [Example 70, 3-{[(3S)-3-amino-1-hydroxy-2-oxo-1,2,3,4-tetrahydroquinolin-6-yl]oxy}benzonitrile, hydrochloride salt], `NC1Cc2cc(Oc3cccc(Cl)c3)ccc2N(O)C1=O` (stereo not drawn) [Example 101] is 0.21 log units lower in pIC50: 7.61 for the first, 7.40 for the second. The first is the more potent here.

`N[C@H]1Cc2cccc(CN3CCOCC3)c2N(O)C1=O` [Example 74, (3S)-3-amino-1-hydroxy-8-(morpholin-4-ylmethyl)-3,4-dihydroquinolin-2(1H)-one, trifluoroacetic acid salt] and `N[C@H]1Cc2ccc3c(c2N(O)C1=O)CCO3` [Example 81] are within 0.2 log units of each other in pIC50: 6.82 for the first, 6.67 for the second.

`COc1cc2c(cc1Cc1ccccc1)C[C@H](N)C(=O)N2O` [Example 75, (3S)-3-amino-6-benzyl-1-hydroxy-7-methoxy-3,4-dihydroquinolin-2(1H)-one, hydrochloride salt] and `COc1cc2c(cc1Cc1cccc(C(F)(F)F)c1)C[C@H](N)C(=O)N2O` [Example 83] are within 0.2 log units of each other in pIC50: 7.45 for the first, 7.40 for the second.

Compared with `CN(Cc1ccc2c(c1)C[C@H](N)C(=O)N2O)c1ccccc1` [Example 76, (3S)-3-amino-1-hydroxy-6-{[methyl(phenyl)amino]methyl}-3,4-dihydroquinolin-2(1H)-one], `N[C@H]1Cc2cccc(-c3ccccc3)c2N(O)C1=O` [Example 97] is 0.96 log units lower in pIC50: 7.46 for the first, 6.50 for the second.

`N[C@H]1Cc2cccc(Oc3ccccc3)c2N(O)C1=O` [Example 77] and `NC1Cc2cc(F)cc(Oc3ccccc3)c2N(O)C1=O` (stereo not drawn) [Example 86] are within 0.2 log units of each other in pIC50: 7.10 for the first, 7.19 for the second.

First: COc1cccc(Oc2ccc3c(c2)C[C@H](N)C(=O)N3O)c1 [Example 78]
Second: NC1Cc2cc(Oc3cccc(F)c3)ccc2N(O)C1=O (stereo not drawn) [Example 106]
The pIC50 of the first is 0.45 log units higher: 7.76 for the first, 7.31 for the second. The first is the more potent here.

`N[C@H]1Cc2cc(Oc3cccc(C(F)(F)F)c3)cnc2N(O)C1=O` [Example 79] and `NC1Cc2cc(Oc3cccc(C(F)(F)F)c3)ccc2N(O)C1=O` (stereo not drawn) [Example 93] are within 0.2 log units of each other in pIC50: 7.53 for the first, 7.45 for the second.

First: NC1Cc2cc(Oc3ccc(O)nc3)ccc2N(O)C1=O (stereo not drawn) [Example 84]
Second: Cc1ccc(Oc2ccc3c(c2)CC(N)C(=O)N3O)cn1 (stereo not drawn) [Example 88]
The pIC50 of the first is 0.29 log units lower: 7.39 for the first, 7.68 for the second. The second is the more potent here.

`NC1Cc2cc(Oc3ccc(F)cc3F)ccc2N(O)C1=O` (stereo not drawn) [Example 85] and `NC1Cc2cc(Oc3cc(F)ccc3F)ccc2N(O)C1=O` (stereo not drawn) [Example 89] are within 0.2 log units of each other in pIC50: 7.40 for the first, 7.44 for the second.

`Cc1ncccc1Oc1ccc2c(c1)CC(N)C(=O)N2O` (stereo not drawn) [Example 87] and `NC1Cc2cc(Oc3ccccn3)ccc2N(O)C1=O` (stereo not drawn) [Example 92] are within 0.2 log units of each other in pIC50: 7.39 for the first, 7.29 for the second.

Compared with `N[C@H]1Cc2cccc(-c3cccnc3C(F)(F)F)c2N(O)C1=O` [Example 90], `N[C@H]1Cc2cccc(OCC(F)(F)F)c2N(O)C1=O` [Example 96] is 0.85 log units higher in pIC50: 6.45 for the first, 7.30 for the second.

`COc1ccc(Oc2ccc3c(c2)CC(N)C(=O)N3O)cc1` (stereo not drawn) [Example 91] and `Cc1ccc(Oc2ccc3c(c2)CC(N)C(=O)N3O)cc1` (stereo not drawn) [Example 98] are within 0.2 log units of each other in pIC50: 7.44 for the first, 7.50 for the second.

Compared with `NC1Cc2cc(Oc3cccc(OC(F)(F)F)c3)ccc2N(O)C1=O` (stereo not drawn) [Example 94], `NC1Cc2cc(Oc3ccc(OC(F)(F)F)cc3)ccc2N(O)C1=O` (stereo not drawn) [Example 103] is 0.25 log units lower in pIC50: 7.36 for the first, 7.11 for the second. The first is the more potent here.

First: NC1Cc2cc(Oc3cccnc3)ccc2N(O)C1=O (stereo not drawn) [Example 95]
Second: NC1Cc2cc(Oc3ccncc3)ccc2N(O)C1=O (stereo not drawn) [Example 100]
The pIC50 of the first is 0.45 log units higher: 7.44 for the first, 6.99 for the second. The first is the more potent here.

Compared with `N#Cc1ccc(Oc2ccc3c(c2)CC(N)C(=O)N3O)cc1` (stereo not drawn) [Example 99], `NC1Cc2cc(Oc3ccc(Cl)cc3)ccc2N(O)C1=O` (stereo not drawn) [Example 105] is 0.53 log units lower in pIC50: 7.70 for the first, 7.17 for the second.

Compared with `NC1Cc2cc(Oc3ccc(C(F)(F)F)cc3)ccc2N(O)C1=O` (stereo not drawn) [Example 102], `COc1cc(Cl)c2c(c1)N(O)C(=O)[C@@H](N)C2` [Example 104] is 0.65 log units lower in pIC50: 7.16 for the first, 6.51 for the second. The first is the more potent here.

From patent publication US8183238B2, “Bicyclic and tricyclic compounds as KAT II inhibitors” (priority 2009, dated 2012)
